Measurements from PubChem BioAssay AID1919010 (Molecular Pharmacology Branch, DTP, NCI, 2023).

System: Hs578T complex spheroid growth, percent test/control
Test: Anticancer human tumor Hs578T cell line growth inhibition [AhR];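 note: luminescent viability signal as a proxy for spheroid growth; spheroids exposed to agents for one week after three days of growth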
Conditions: for IC50: curve of first compound; for viability, T/C: stronger effect = lower value
Summary of the method: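 Agents were dosed in half-log steps down from roughly clinical Cmax, or from 10 microM where Cmax was unknown, alone and with AhR antagonists. Read-out: percent test/control growth of tumor spheroids containing HUVEC and MSC stromal cells.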

[1] = second compound 0.1 µM, first compound 0.0316 µM
[2] = second compound 0.1 µM, first compound 0.1 µM
[3] = second compound 0.1 µM, first compound 0.316 µM
[4] = second compound 0.1 µM, first compound 1 µM
[5] = second compound 0.316 µM, first compound 0.0316 µM
[6] = second compound 0.316 µM, first compound 0.1 µM
[7] = second compound 0.316 µM, first compound 0.316 µM
[8] = second compound 0.316 µM, first compound 1 µM
[9] = second compound 1 µM, first compound 0.0316 µM
[10] = second compound 1 µM, first compound 0.1 µM
[11] = second compound 1 µM, first compound 0.316 µM
[12] = second compound 1 µM, first compound 1 µM
[13] = second compound 3.16 µM, first compound 0.0316 µM
[14] = second compound 3.16 µM, first compound 0.1 µM
[15] = second compound 3.16 µM, first compound 0.316 µM
[16] = second compound 3.16 µM, first compound 1 µM
[17] = second compound 10 µM, first compound 0.0316 µM
[18] = second compound 10 µM, first compound 0.1 µM
[19] = second compound 10 µM, first compound 0.316 µM
[20] = second compound 10 µM, first compound 1 µM

| Structure (SMILES) | IC50 (second compound 0.1 µM) [nM] | IC50 (second compound 0.316 µM) [nM] | IC50 (second compound 1 µM) [nM] | IC50 (second compound 3.16 µM) [nM] | IC50 (second compound 10 µM) [nM] | viability, T/C [1] [%] | viability, T/C [2] [%] | viability, T/C [3] [%] | viability, T/C [4] [%] | viability, T/C [5] [%] | viability, T/C [6] [%] | viability, T/C [7] [%] | viability, T/C [8] [%] | viability, T/C [9] [%] | viability, T/C [10] [%] | viability, T/C [11] [%] | viability, T/C [12] [%] | viability, T/C [13] [%] | viability, T/C [14] [%] | viability, T/C [15] [%] | also measured |
| --- | --- | --- | --- | --- | --- | --- | --- | --- | --- | --- | --- | --- | --- | --- | --- | --- | --- | --- | --- | --- | --- |
| COc1cccc2c1C(=O)c1c(O)c3c(c(O)c1C2=O)CC(O)(C(=O)CO)CC3OC1CC(N)C(O)C(C)O1 (stereo not given) + Cc1cncc(-c2nc(NCCc3c[nH]c4ccccc34)c3ncn(C(C)C)c3n2)c1 | 561 | 480 | 363 | 315 | < 31.6 | 90.3 | 87.7 | 73.5 | 26.6 | 97.1 | 87.5 | 68.2 | 19.3 | 92.9 | 80.5 | 56.7 | 12.3 | 62.1 | 52.9 | 50.1 | viability, T/C (second compound 0.1 µM, first compound 3.16 µM): 3.41%; viability, T/C (second compound 0.1 µM, first compound 10 µM): 3.51%; viability, T/C (second compound 0.316 µM, first compound 3.16 µM): 3.19%; viability, T/C (second compound 0.316 µM, first compound 10 µM): 3.19%; viability, T/C (second compound 1 µM, first compound 3.16 µM): 2.37%; viability, T/C (second compound 1 µM, first compound 10 µM): 2.76%; viability, T/C [16]: 5.82%; viability, T/C (second compound 3.16 µM, first compound 3.16 µM): 1.65%; viability, T/C (second compound 3.16 µM, first compound 10 µM): 1.75%; viability, T/C [17]: 6.81%; viability, T/C [18]: 6.99%; viability, T/C [19]: 11.9%; viability, T/C [20]: 0.55%; viability, T/C (second compound 10 µM, first compound 3.16 µM): 0.74%; viability, T/C (second compound 10 µM, first compound 10 µM): 0.83% |
| Nc1ncn(C2CC(O)C(CO)O2)c(=O)n1 (stereo not given) + Cc1cncc(-c2nc(NCCc3c[nH]c4ccccc34)c3ncn(C(C)C)c3n2)c1 | > 1000 | > 1000 | > 1000 | > 1000 | < 3.16 | 111 | 112 | 108 | 106 | 119 | 111 | 106 | 102 | 112 | 108 | 112 | 108 | 82.6 | 74.4 | 77.4 | viability, T/C (second compound 0.1 µM, first compound 0.00316 µM): 105%; viability, T/C (second compound 0.1 µM, first compound 0.01 µM): 114%; viability, T/C (second compound 0.316 µM, first compound 0.00316 µM): 116%; viability, T/C (second compound 0.316 µM, first compound 0.01 µM): 110%; viability, T/C (second compound 1 µM, first compound 0.00316 µM): 109%; viability, T/C (second compound 1 µM, first compound 0.01 µM): 105%; viability, T/C (second compound 3.16 µM, first compound 0.00316 µM): 73.1%; viability, T/C (second compound 3.16 µM, first compound 0.01 µM): 76.2%; viability, T/C [16]: 75.7%; viability, T/C (second compound 10 µM, first compound 0.00316 µM): 6.02%; viability, T/C (second compound 10 µM, first compound 0.01 µM): 6.62%; viability, T/C [17]: 6.65%; viability, T/C [18]: 6.53%; viability, T/C [19]: 6.26%; viability, T/C [20]: 6.45% |
